Reference: US20250388575A1, “HETEROBIFUNCTIONAL COMPOUNDS AND METHODS OF TREATING DISEASE” (Halda Therapeutics OpCo, Inc., priority 2022, published 2025)
Read-outs that look alike come from different tables or passages of the source.

Experiments:
[1] = test system: T-Rex 293 cell line SC3 cells having increased expression of androgen receptor protein; assay: Cellular growth inhibition, T-Rex 293 SC3 cells with increased androgen receptor expression (doxycycline), CellTiter-Glo; assay type: cell-based; settings: T-Rex 293 SC3 cells with increased androgen receptor expression (exposed to 10 ng/mL doxycycline), 72 hours, CellTiter-Glo; read-out: GI50
How it was run: (§1)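 SC3, a T-Rex 293 clone with doxycycline-inducible wild-type androgen receptor, was seeded in phenol red-free DMEM with 10% charcoal-dextran FBS, with or without 10 ng/mL doxycycline. Compound added at 24 h (0.5% DMSO) for 72 h at 37° C. CellTiter-Glo 2.0 luminescence; GI50 from four-parameter fit.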

[2] = test system: T-Rex 293 cell line SC3 cells lacking increased expression of androgen receptor protein; assay: Cellular growth inhibition, T-Rex 293 SC3 cells lacking increased androgen receptor expression (no doxycycline), CellTiter-Glo; assay type: cell-based; settings: T-Rex 293 SC3 cells lacking increased androgen receptor expression (not exposed to doxycycline), 72 hours, CellTiter-Glo; read-out: GI50
How it was run: as §1

[3] = test system: VCaP cells; assay: Cellular growth inhibition assay for VCaP cells, CellTiter-Glo; assay type: cell-based, human; settings: VCaP cells, 72 hours, CellTiter-Glo, read-out: GI50
How it was run: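 GI50 values come from four-parameter curve fits of luminescence data normalized to a zero baseline. Compound, in medium with 0.5% DMSO, was added one day after plating and left for 72 h before CellTiter-Glo 2.0 addition.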

[4] = test system: T47D cells; assay: Cellular growth inhibition assay for T47D cells, CellTiter-Glo; assay type: cell-based, human; settings: 72 hours treatment, CellTiter-Glo 2.0
How it was run: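 Growth inhibition as GI50, fitted with four parameters to CellTiter-Glo luminescence after 72 h of compound exposure (0.5% DMSO). Cells were T47D, grown in insulin-supplemented (0.2 units/mL) DMEM with 10% FBS and treated one day post-seeding.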

[5] = target: progesterone receptor ligand binding domain (LBD) (Homo sapiens (Human), UniProt P06401); assay: FP assay for binding affinity to progesterone receptor (PolarScreen Progesterone Receptor Competitor Assay); settings: GST-tagged PR LBD, Fluormone tracer, fluorescence polarization, 2 hours at room temperature
Method: Compounds were tested using the PolarScreen™ Progesterone Receptor Competitor Assay Kit (Life Technologies Cat #A15905 or a15906), as per the manufacturer's instructions. Briefly, GST-tagged PR LBD, Fluormone tracer, and compound were mixed and incubated for 2 hours at room temperature in the dark. Following incubation, the plates were spun at 3000×g for 30 seconds, then sealed with an optical adhesive cover, and fluorescence polarization was measured using appropriate excitation and emission filters with an EnVision Plate Reader (Perkin Elmer). Compound concentration vs. mP value were plotted in Prism (GraphPad). A four-parameter non-linear regression curve fit was applied to dose-response data to determine the half-maximal inhibitory concentration (IC50) for each test compound.

[6] = test system: T-Rex 293 cell line SC cells having increased expression of progesterone receptor isoform B protein; assay: Cellular growth inhibition, T-Rex 293 SC cells with increased progesterone receptor isoform B expression (doxycycline), CellTiter-Glo; assay type: cell-based; settings: progesterone receptor isoform B induced with 10 ng/mL doxycycline, 72 hours
Method: (§2) The following types of cells were prepared for this experiment: (i) a T-Rex 293 cell line having increased expression of progesterone receptor isoform B protein due to exposure to doxycycline and (ii) a T-Rex 293 cell line lacking increased expression of progesterone receptor isoform B protein. Ability of the test compounds to inhibit proliferation of the foregoing cell types was evaluated according to the procedures set forth below.
(§3) The doxycycline-inducible progesterone receptor isoform B protein expressing cell line was established using the following protocol: T-Rex 293 cells were purchased from Invitrogen (Cat #R71007) and transfected using Lipofectamine 2000 with the wild-type progesterone receptor B protein sequence cloned into the pcDNA4/TO vector. Transfected cells were selected using 400 μg/mL Zeocin (Invitrogen Cat #R25001). Following selection, single clones were raised and maintained in Dulbecco's Modified Eagle Medium (DMEM) supplemented with 10% w/w Tetracycline-free fetal bovine serum (FBS) and 250 μg/mL Zeocin. Clones were analyzed for expression of progesterone receptor isoform B protein in the presence and absence of 10 ng/ml doxycycline (Sigma Cat #D9891), and a single doxycycline-inducible clone (hereinafter “SC”) was selected for use in downstream assays.
(§4) The SC cells were seeded on poly-D-lysine coated, black clear-bottom 384-well plates at 2500/well, in 25 μL Phenol Red Free Dulbecco's Modified Eagle Medium (DMEM) supplemented with 10% w/w charcoal-dextran treated fetal bovine serum (FBS) and 1% w/w pen-strep, with or without 10 ng/mL doxycycline. Pen-Strep is a commercially available mixture of penicillin G and streptomycin, which is used in mammalian cell culture media to prevent bacterial contamination. Phenol Red Free Dulbecco's Modified Eagle Medium (DMEM) supplemented with 10% w/w charcoal-dextran treated fetal bovine serum (FBS) and 1% w/w pen-strep, with or without 10 ng/mL doxycycline is herein referred to as Treatment Medium. Following seeding of cells in the plates, the plates were spun at 300×g for 30 seconds, then equilibrated to room temperature for 30 minutes, and then deposited in a humidified tissue culture incubator maintained at 37° C. with 5% CO2.
(§5) At 24 hours after seeding of the cells, dilutions of test compound were prepared in DMSO and dissolved in Treatment Medium, to achieve a final DMSO concentration of 0.5% w/w, thereby providing the Test Compound Solution. A 25 μL aliquot of the Test Compound Solution was added to cells in the well plates. An equal volume of a solution containing DMSO and Treatment Medium was used as a negative control. Following treatment of cells with Test Compound Solution or said equal volume of a solution containing DMSO and Treatment Medium, the plates were spun at 300×g for 30 seconds, and then left in an incubator for 72 hours.
(§6) At the end of the treatment duration, cell viability was quantified with CellTiter-Glo 2.0 reagent (Promega Cat #G9243). For this purpose, plates were equilibrated to room temperature for 30 minutes, and then 25 μL of CellTiter-Glo 2.0 reagent was added to cells in the plate wells. Plates were then agitated on a shaker for two minutes at 500 rpm and subsequently incubated at room temperature for 10 minutes. Following incubation, the plates were spun at 3000×g for 30 seconds, then sealed with an optical adhesive cover, and luminescence readings were measured with an EnVision Plate Reader (Perkin Elmer).
(§7) Data was normalized using zero luminescence for baseline. A four-parameter non-linear regression curve fit was applied to dose-response data in GraphPad Prism data analysis software to determine the half-maximal growth inhibitory concentration (GI50) for each test compound.

[7] = test system: T-Rex 293 cell line SC cells lacking increased expression of progesterone receptor isoform B protein; assay: Cellular growth inhibition, T-Rex 293 SC cells lacking increased progesterone receptor isoform B expression (no doxycycline), CellTiter-Glo; assay type: cell-based; settings: T-Rex 293 SC cells not exposed to doxycycline, 72 hours
Method: as §2, §3, §4, §5, §6, §7

Sequence of progesterone receptor ligand binding domain (LBD) (P06401 679-913): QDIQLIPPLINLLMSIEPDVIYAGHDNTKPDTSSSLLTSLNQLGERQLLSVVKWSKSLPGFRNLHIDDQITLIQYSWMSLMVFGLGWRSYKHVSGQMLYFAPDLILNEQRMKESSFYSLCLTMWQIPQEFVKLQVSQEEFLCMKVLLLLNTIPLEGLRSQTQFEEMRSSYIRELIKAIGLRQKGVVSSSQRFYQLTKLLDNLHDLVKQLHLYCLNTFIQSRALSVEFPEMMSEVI

Row | GI50 ([3]; Homo sapiens) [nM] | GI50 ([4]; Homo sapiens) [nM] | IC50 [5] [nM] | GI50 [3] [nM] | GI50 [4] [nM] | SMILES | GI50 [1] [nM] | GI50 [2] [nM] | GI50 [6] [nM] | GI50 [7] [nM]
1 | 500 to 1500 | < 500 | 50 to 500 | – | – | Cn1cc(-c2cc(C(C)(C)O)ccc2Oc2ccc(CCOC3CCN(c4ccc(C(=O)N[C@H]5CC[C@H](Oc6ccc(C#N)c(Cl)c6)CC5)nn4)CC3)cc2F)c2cc[nH]c2c1=O [I-106] | < 500 | < 500 | – | –
2 | < 500 | < 500 | – | – | – | CN(c1ccc(Oc2ccc(C(C)(C)O)cc2-c2cn(C)c(=O)c3[nH]ccc23)cc1)C1CN(c2ccc(C(=O)N[C@H]3CC[C@H](Oc4ccc(C#N)c(Cl)c4)CC3)nn2)C1 [I-138] | < 500 | < 500 | < 500 | < 500
3 | < 500 | < 500 | – | – | – | CCS(=O)(=O)c1ccc(Oc2cccc(CCCCN3CC4(C3)CN(c3ccc(C(=O)N[C@H]5CC[C@H](Oc6ccc(C#N)c(Cl)c6)CC5)nn3)C4)c2F)c(-c2cn(C)c(=O)c3[nH]ccc23)c1 [I-47] | < 500 | < 500 | < 500 | < 500
4 | < 500 | < 500 | – | – | – | CN(CCc1ccc(Oc2ccc(C(C)(C)O)cc2-c2cn(C)c(=O)c3[nH]ccc23)cc1)c1ccc(C(=O)NC2CCC(Oc3ccc(C#N)c(Cl)c3)CC2)nn1 (stereo not shown) [I-100, N-[4-(3-chloro-4-cyano-phenoxy)cyclohexyl]-6-[2-[4-[4-(1-hydroxy-1-methyl-ethyl)-2-(6-methyl-7-oxo-1H-pyrrolo[2,3-c]pyridin-4-yl)phenoxy]phenyl]ethyl-methyl-amino]pyridazine-3-carboxamide] | < 500 | < 500 | < 500 | < 500
5 | < 500 | < 500 | – | – | – | CCS(=O)(=O)c1ccc(Oc2cccc(OCCN3CCN(c4ccc(C(=O)NC5CCC(Oc6ccc(C#N)c(Cl)c6)CC5)nn4)CC3)c2F)c(-c2cn(C)c(=O)c3[nH]ccc23)c1 (stereo not shown) [I-40, N-[4-(3-chloro-4-cyano-phenoxy)cyclohexyl]-6-[4-[2-[3-[4-ethylsulfonyl-2-(6-methyl-7-oxo-1H-pyrrolo[2,3-c]pyridin-4-yl)phenoxy]-2-fluoro-phenoxy]ethyl]piperazin-1-yl]pyridazine-3-carboxamide] | < 500 | < 500 | < 500 | < 500
6 | < 500 | < 500 | – | – | – | CCS(=O)(=O)Nc1ccc(Oc2cccc(N3CC(OC4CCN(c5ccc(C(=O)N[C@H]6CC[C@H](Oc7ccc(C#N)c(Cl)c7)CC6)nn5)CC4)C3)c2F)c(-c2cn(C)c(=O)c3[nH]ccc23)c1 [I-25] | < 500 | > 3000 | < 500 | < 500
7 | < 500 | < 500 | – | – | – | Cn1cc(-c2cc(C(C)(C)O)ccc2Oc2ccc(OCCN3CCN(c4ccc(C(=O)N[C@H]5CC[C@H](Oc6ccc(C#N)c(Cl)c6)CC5)nn4)CC3)cc2)c2cc[nH]c2c1=O [I-97] | < 500 | < 500 | < 500 | < 500
8 | < 500 | < 500 | – | – | – | Cn1cc(-c2cc(C(C)(C)O)ccc2Oc2ccc(CC3CCN(c4ccc(C(=O)N[C@H]5CC[C@H](Oc6ccc(C#N)c(Cl)c6)CC5)nn4)CC3)cc2)c2cc[nH]c2c1=O [I-101] | < 500 | 500 to 1500 | < 500 | < 500
9 | – | – | – | < 500 | < 500 | Cn1cc(-c2cc(C(C)(C)O)ccc2Oc2ccc(N3CCN(c4ccc(C(=O)N[C@H]5CC[C@H](Oc6ccc(C#N)c(Cl)c6)CC5)nn4)CC3)cc2)c2cc[nH]c2c1=O [I-139] | < 500 | < 500 | < 500 | < 500
10 | – | – | – | < 500 | < 500 | Cn1cc(-c2cc(C(C)(C)O)ccc2Oc2ccc(OCC3CCN(c4ccc(C(=O)N[C@H]5CC[C@H](Oc6ccc(C#N)c(Cl)c6)CC5)nn4)CC3)cc2)c2cc[nH]c2c1=O [I-96] | < 500 | < 500 | < 500 | < 500
11 | – | – | – | < 500 | 500 to 1500 | CN(CCCOc1ccc(Oc2ccc(C(C)(C)O)cc2-c2cn(C)c(=O)c3[nH]ccc23)cc1)c1ccc(C(=O)N[C@H]2CC[C@H](Oc3ccc(C#N)c(Cl)c3)CC2)nn1 [I-99] | < 500 | < 500 | < 500 | 500 to 1500
12 | < 500 | < 500 | – | – | – | Cn1cc(-c2cc(C(C)(C)O)ccc2Oc2ccc(CCOC3CCN(c4ccc(C(=O)N[C@H]5CC[C@H](Oc6ccc(C#N)c(Cl)c6)CC5)nn4)CC3)cc2)c2cc[nH]c2c1=O [I-103] | < 500 | < 500 | < 500 | < 500
13 | < 500 | < 500 | – | – | – | CCS(=O)(=O)Nc1ccc(Oc2cccc(OCCOCCOCCOC3CCN(c4ccc(C(=O)N[C@H]5CC[C@H](Oc6ccc(C#N)c(Cl)c6)CC5)nn4)CC3)c2)c(-c2cn(C)c(=O)c3[nH]ccc23)c1 [I-2, N-[4-(3-chloro-4-cyano-phenoxy)cyclohexyl]-6-[4-[2-[2-[2-[3-[4-(ethylsulfonylamino)-2-(6-methyl-7-oxo-1H-pyrrolo[2,3-c]pyridin-4-yl)phenoxy]phenoxy]ethoxy]ethoxy]ethoxy]-1-piperidyl]pyridazine-3-carboxamide] | < 500 | 500 to 1500 | < 500 | < 500
14 | – | – | – | < 500 | < 500 | Cn1cc(-c2cc(C(C)(C)O)ccc2Oc2ccc(N3CC(C4CCN(c5ccc(C(=O)N[C@H]6CC[C@H](Oc7ccc(C#N)c(Cl)c7)CC6)nn5)CC4)C3)cc2)c2cc[nH]c2c1=O [I-148] | < 500 | > 3000 | < 500 | 500 to 1500
15 | – | – | – | < 500 | – | CN(CCOc1ccc(Oc2ccc(C(C)(C)O)cc2-c2cn(C)c(=O)c3[nH]ccc23)cc1)c1ccc(C(=O)N[C@H]2CC[C@H](Oc3ccc(C#N)c(Cl)c3)CC2)nn1 [I-98] | < 500 | < 500 | < 500 | < 500
